These are literature values, as cited in PMC9050719 (RSC Advances, 2020).

The test system of data set [1] is mice.
The conditions of data set [2]: prodrug of MPA.

For `COc1c(C)c2c(c(O)c1C/C=C(\C)CCC(=O)O)C(=O)OC2` [MPA, Mycophenolic acid], the “Administered dose giving profound toxicity in mice” value in data set [1] is reported as “over 1000 mg per kg per day”.

In the case of `COc1c(C)c2c(c(O)c1C/C=C(\C)CCC(=O)OCCN1CCOCC1)C(=O)OC2` [Mycophenolate mofetil], the Bioavailability in data set [2] was about 90%.
